ChEMBL document CHEMBL2346556, “Synthesis, receptor binding and activity of iso and azakainoids” (Bioorg Med Chem Lett, 2013)
Activity calls are given as the source filed them. No cut-off for these calls is given here.

Assays:
[1] = test system: Aplysia californica; assay: Agonist activity at glutamate receptor in Aplysia californica buccal S cluster neurons assessed as receptor non-desensitization at 30 mV holding potential at 1 mM by patch clamp technique
[2] = test system: Aplysia californica; assay: Agonist activity at glutamate receptor in Aplysia californica buccal S cluster neurons assessed as membrane depolarization at 1 mM by patch clamp technique
[3] = (§1) Displacement of [3H]glutamic acid from rat brain unspecified glutamate receptor by competitive binding assay
[4] = species on record: Rattus norvegicus; assay: Displacement of [3H]kainic acid from rat brain unspecified glutamate receptor by competitive binding assay
[5] = species on record: Rattus norvegicus; assay: Displacement of [3H]NMDA from rat brain unspecified glutamate receptor by competitive binding assay
[6] = species on record: Rattus norvegicus; assay: Displacement of [3H]AMPA from rat brain unspecified glutamate receptor by competitive binding assay
[7] = species on record: Rattus norvegicus; assay: as §1

| Activity [2] | EC50 [3] | Activity [4] | Activity [5] | Activity [6] | Structure (SMILES) | Activity [1] | Activity [7] |
| --- | --- | --- | --- | --- | --- | --- | --- |
| Active | 12 µM | inactive | inactive | inactive | O=C(O)C[C@H]1CNN[C@@H]1C(=O)O (relative stereo) | Active | – |
| – | – | inactive | inactive | inactive | O=C(O)C[C@H]1CNC[C@@H]1C(=O)O (relative stereo) | – | inactive |

| Structure (SMILES) | Activity [2] | EC50 [3] | Activity [4] | Activity [5] | Activity [6] | Activity [1] | Activity [7] |
| --- | --- | --- | --- | --- | --- | --- | --- |
| O=C(O)C[C@H]1CCN[C@@H]1C(=O)O (relative stereo) | – | – | inactive | inactive | inactive | – | inactive |
